The values below come from US7053082B1, “2,3-benzodiazepine derivatives” (priority 1999, dated 2006).

Some results are limits rather than exact numbers.

Data set [1] can be described thus: Duration of action in rats as assessed from the decrease in body core temperature. In kind it is in vivo. The following applies: male Wistar rats, i.p.; for PE, Δ ° C. (peak effect, maximum decrease in body temperature): radiotelemetry core body temperature, versus last value prior to treatment; for D, hours (duration of action): time from treatment to return of body temperature to the control level.
Description: At least one week prior to treatments six male Wistar rats were anaesthetised with pentobarbital-Na (60 mg/kg, i.p.; Nembutal, Phylaxia-Sanofi, Budapest). Using sterile surgical procedures TL11M2-C50-PXT or TA10TA-F40 type radiotelemetry transmitters (Data Sciences International, St. Paul, Minn., USA) permitting continuous monitoring of core body temperature were implanted into the peritoneal cavity of the animals. After surgery the rats were treated with an antibiotic (1 ml/kg b.w. i.m. Tardomyocel, Bayer A G, Leverkusen, Germany). The animals were housed individually in type 2 plastic rat cages with free access to food and tap water. The compounds were dissolved in 5 M hydrochloric acid solution and distilled water (5%/95% v/v) then the pH of the solution was adjusted to 3 using 1 M sodium hydroxide solution. The compounds were administered intraperitoneally in a volume of 10 ml/kg.
Radio signals emitted by the transmitters were detected by RLA1000 type receivers placed under each animal's cage. Data were collected and saved by a Dataquest IV computerised data acquisition system. The computer was set to sample body temperature for 10 seconds in every second minute. Mean values for 30 min periods over the whole day were calculated running the “Sort Utility” of the Dataquest IV. […] The upper and lower limits of the evaluating routine were set to exclude biologically improbable values. Individual body temperature curves were averaged for the six animals.
Peak effect (PE) was measured as the maximum decrease in body temperature in comparison to the last value prior to treatment. Using mean values, duration of action (D) was measured as the time interval from treatment to return of body temperature to the control level.

Data set [2] concerns MgCl2-induced global cerebral ischemia in mice. The data set can be described thus: Neuroprotective effect in MgCl2-induced global cerebral ischemia in mice. In kind it is in vivo. Particulars: dose that prolonged survival time by 50%; i.p. 30 min before i.v. saturated MgCl2 (5 ml/kg); male NMRI mice. As to the method: Male NMRI mice weighing 20–25 g were randomly allocated to treatment groups of 10 animals/group. The compounds were dissolved in 5 M hydrochloric acid solution and distilled water (5%/95% v/v) then the pH of the solution was adjusted to 3 using 1 M sodium hydroxide solution. The compounds were administered intraperitoneally in a volume of 10 ml/kg. Each compound was tested at four increasing dose levels and a separate group of animals was treated with the vehicle. Thirty min after treatment all mice received an intravenous bolus injection of saturated MgCl2 solution (5 ml/kg) that caused an immediate cardiac arrest and complete cerebral ischemia. Increases in survival time (interval between the injection of MgCl2 and the last observable gasp) were used as a measure of neuroprotective effect as described by Berga et al.. Percentage changes in survival time were calculated in comparison to that measured in the vehicle treated group. PD50 (the dose that prolonged survival by 50%) was calculated by linear regression analysis using percentage changes in survival time.

The compound `Cc1cc(C2=NN=C(C=O)Cc3cc4c(cc32)OCO4)ccc1[N+](=O)[O-]` yielded a melting point of 188 to 191 °C.

Consider `Cc1cc(C2=NN=C(C(=O)O)Cc3cc4c(cc32)OCO4)ccc1[N+](=O)[O-]`, for which the melting point was 185 to 186 °C. On the same count and under the same terms, for `Cc1cc(C2=NN=C(C=NNC(N)=O)Cc3cc4c(cc32)OCO4)ccc1[N+](=O)[O-]` the value was 260 to 264 °C; for `CC1=Cc2cc3c(cc2C(c2ccc([N+](=O)[O-])c(C)c2)=NN1C(=O)NC1CC1)OCO3`, 198 to 202 °C. The same measure, in the same setting: in the case of `Cc1cc(C2=NN=C(C#N)Cc3cc4c(cc32)OCO4)ccc1N` it was 252 to 255 °C; in that of `CC(=O)N1N=C(c2ccc(N)c(C)c2)c2cc3c(cc2C=C1C)OCO3`, 222 to 223 °C; in that of `CC1=NN=C(c2ccc([N+](=O)[O-])c(C)c2)c2cc3c(cc2C1)OCO3`, 189 to 194 °C. On the same count and under the same terms, in the case of `CC(=O)N1N=C(c2ccc([N+](=O)[O-])c(C)c2)c2cc3c(cc2CC1C(N)=O)OCO3` (racemic) it was 157 to 161 °C; in that of `Cc1cc(C2=NNC(C)(C#N)Cc3cc4c(cc32)OCO4)ccc1[N+](=O)[O-]` (racemic), 148 to 151 °C.

`CC(=O)N1N=C(c2ccc([N+](=O)[O-])c(C)c2)c2cc3c(cc2CC1(C)C#N)OCO3` (racemic): the melting point lay in the range of 253 to 255 °C. Same read-out and setting: for `CCC(=O)N1N=C(c2ccc([N+](=O)[O-])c(C)c2)c2cc3c(cc2CC1(C)C#N)OCO3` (racemic) the value was 191 to 193 °C. Still for that read-out and setting: for `Cc1cc(C2=NN(C(=O)NC3CC3)C(C)Cc3cc4c(cc32)OCO4)ccc1N` (racemic) the value was 179 to 181 °C; for `CC(=O)N1N=C(c2ccc([N+](=O)[O-])c(C)c2)c2cc3c(cc2CC1C)OCO3` (racemic), 178 to 181 °C; for `CCC(=O)N1N=C(c2ccc([N+](=O)[O-])c(C)c2)c2cc3c(cc2CC1C)OCO3` (racemic), 172 to 175 °C. In turn, `CC(=O)N1N=C(c2ccc(N)c(C)c2)c2cc3c(cc2CC1C)OCO3` (racemic) [Example 27, (±)-7-acetyl-5-(4-amino-3-methyl-phenyl)-7,8-dihydro-8-methyl-9H-1,3-dioxolo[4,5-h][2,3]benzodiazepine] gave a melting point of 121 to 123 °C. In addition, in data set [1], the “PE, Δ ° C. (peak effect, maximum decrease in body temperature)” value was −1.45 °C and the “D, hours (duration of action)” value was greater than 20 h. The “PD50, mg/kg i.p.” value in data set [2] is reported as 5.4 mg/kg. Consider `CONC(=O)N1N=C(c2ccc(N)c(C)c2)c2cc3c(cc2CC1C)OCO3` (racemic) [Example 30, (±)-5-(4-amino-3-methyl-phenyl)-7,8-dihydro-8-methyl-7-(N-methozy-carbamoyl)-9H-1,3-dioxolo[4,5-h][2,3]benzodiazepine], for which, in data set [2], the “PD50, mg/kg i.p.” value was determined as 14.9 mg/kg.

As for `CNC(=O)N1N=C(c2ccc(N)c(C)c2)c2cc3c(cc2CC1C)OCO3` (racemic) [Example 31, (±)-5-(4-amino-3-methyl-phenyl)-7,8-dihydro-8-methyl-7-(N-methyl-carbamoyl)-9H-1,3-dioxolo[4.5-h][2.3]benzodiazepine], in data set [1], the “PE, Δ ° C. (peak effect, maximum decrease in body temperature)” value was −1.46 °C and the “D, hours (duration of action)” value was 20 h. Take `CC(=O)N1N=C(c2ccc(N)c(C)c2)c2cc3c(cc2CC1(C)C#N)OCO3` (racemic) [Example 38, (±)-7-acetyl-5-(4-amino-3-methyl-phenyl)-8-cyano-7,8-dihydro-8-methyl-9H-1,3-dioxolo[4.5-h][2.3]benzodiazepine]: in data set [1], the “PE, Δ ° C. (peak effect, maximum decrease in body temperature)” value is −1.34 °C and the “D, hours (duration of action)” value turned out to be 9 h. Besides, in data set [2], the “PD50, mg/kg i.p.” value is 11.2 mg/kg.
